What all share (assay type): biochemical
One experiment concerns the target PI3Kβ (Homo sapiens (Human), UniProt P42338). The experiment can be described thus: TR-FRET enzymatic assay of PI3K isoforms (PI3Kβ). As to conditions: TR-FRET, 2×Km ATP, 2 μM PIP2, incubated for 30 minutes at 25° C.; read-out: β IC50. The protocol: (§1) The compounds of formula (I) were characterized for their enzymatic activity against the PI3K isoforms. Certain compounds of the present application, including certain compounds of formula (II) and (III) were also characterized for their enzymatic activity against PI3K isoforms. The activities were measured using a time-resolved fluorescence resonance energy transfer (TR-FRET) assay.
(In TR-FRET formats the signal depends on donor and acceptor labels being close together.)

Another experiment has as its target PI3Kδ (Homo sapiens (Human), UniProt O00329). Kind of experiment: TR-FRET enzymatic assay of PI3K isoforms (PI3Kδ). The following applies: 2×Km ATP, 2 μM PIP2, incubated for 30 minutes at 25° C., read-out: δ IC50. The protocol: as §1
The target in another experiment is PI3Kγ (Homo sapiens (Human), UniProt P48736). The experiment can be described thus: TR-FRET enzymatic assay of PI3K isoforms (PI3Kγ). The following applies: read-out: γ IC50. The protocol:
as §1

The mark [1] stands for this setting: TR-FRET, 2×Km ATP, 2 μM PIP2, PI3Kγ at 2 nM, incubated for 30 minutes at 25° C.

Structures can show the parent of a compound that is named as a salt. Where two headings read alike, the source gives them in different places.

A word on the IC50: it is the point on the concentration scale where inhibition reaches its midpoint.

PI3Kδ, sequence (O00329 whole entry, canonical isoform): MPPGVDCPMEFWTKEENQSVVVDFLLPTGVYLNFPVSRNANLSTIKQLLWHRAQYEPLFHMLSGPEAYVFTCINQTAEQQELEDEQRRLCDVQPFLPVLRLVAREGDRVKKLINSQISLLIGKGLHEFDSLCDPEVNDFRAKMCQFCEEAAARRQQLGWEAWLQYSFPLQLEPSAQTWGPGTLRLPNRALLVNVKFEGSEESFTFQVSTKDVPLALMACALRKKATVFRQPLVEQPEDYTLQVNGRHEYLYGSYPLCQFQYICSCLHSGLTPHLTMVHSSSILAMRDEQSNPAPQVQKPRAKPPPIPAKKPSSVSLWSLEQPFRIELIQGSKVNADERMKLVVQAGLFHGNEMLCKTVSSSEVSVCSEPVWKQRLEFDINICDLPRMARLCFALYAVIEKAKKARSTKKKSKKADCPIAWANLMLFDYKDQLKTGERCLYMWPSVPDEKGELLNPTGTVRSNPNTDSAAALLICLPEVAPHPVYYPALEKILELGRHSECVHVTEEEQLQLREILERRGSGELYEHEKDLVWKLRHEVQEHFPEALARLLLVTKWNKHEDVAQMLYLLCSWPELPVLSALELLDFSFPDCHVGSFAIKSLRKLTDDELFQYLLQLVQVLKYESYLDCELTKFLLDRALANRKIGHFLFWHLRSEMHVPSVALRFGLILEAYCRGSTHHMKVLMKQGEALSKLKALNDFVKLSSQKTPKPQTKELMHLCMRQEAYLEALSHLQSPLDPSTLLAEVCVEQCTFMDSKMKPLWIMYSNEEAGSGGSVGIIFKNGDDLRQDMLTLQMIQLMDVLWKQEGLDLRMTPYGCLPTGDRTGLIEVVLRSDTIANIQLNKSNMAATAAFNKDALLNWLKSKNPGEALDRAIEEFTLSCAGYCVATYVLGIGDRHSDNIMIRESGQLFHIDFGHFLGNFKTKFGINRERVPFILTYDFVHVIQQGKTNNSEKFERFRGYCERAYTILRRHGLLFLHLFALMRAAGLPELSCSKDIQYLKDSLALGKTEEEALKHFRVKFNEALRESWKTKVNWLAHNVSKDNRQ
PI3Kδ, sequence (P27986 whole entry partner, canonical isoform): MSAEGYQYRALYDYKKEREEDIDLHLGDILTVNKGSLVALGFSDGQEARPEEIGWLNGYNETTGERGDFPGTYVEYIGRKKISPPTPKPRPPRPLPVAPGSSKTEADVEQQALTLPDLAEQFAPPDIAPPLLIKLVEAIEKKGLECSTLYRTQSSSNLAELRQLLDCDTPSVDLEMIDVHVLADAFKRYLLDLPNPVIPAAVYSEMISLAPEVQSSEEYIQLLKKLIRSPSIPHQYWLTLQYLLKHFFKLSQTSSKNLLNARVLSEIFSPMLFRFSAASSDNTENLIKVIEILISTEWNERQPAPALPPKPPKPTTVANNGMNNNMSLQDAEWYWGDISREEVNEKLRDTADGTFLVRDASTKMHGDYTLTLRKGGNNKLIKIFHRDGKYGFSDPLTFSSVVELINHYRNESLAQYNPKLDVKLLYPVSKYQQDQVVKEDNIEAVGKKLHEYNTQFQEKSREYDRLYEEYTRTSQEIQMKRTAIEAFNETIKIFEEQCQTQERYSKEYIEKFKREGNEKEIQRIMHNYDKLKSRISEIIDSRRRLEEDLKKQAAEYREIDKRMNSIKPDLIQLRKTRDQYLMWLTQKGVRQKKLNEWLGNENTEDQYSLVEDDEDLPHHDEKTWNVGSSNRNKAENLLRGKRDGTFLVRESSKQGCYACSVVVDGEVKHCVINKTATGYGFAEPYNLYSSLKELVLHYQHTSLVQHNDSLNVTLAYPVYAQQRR
PI3Kβ, sequence (P42338 whole entry, canonical isoform): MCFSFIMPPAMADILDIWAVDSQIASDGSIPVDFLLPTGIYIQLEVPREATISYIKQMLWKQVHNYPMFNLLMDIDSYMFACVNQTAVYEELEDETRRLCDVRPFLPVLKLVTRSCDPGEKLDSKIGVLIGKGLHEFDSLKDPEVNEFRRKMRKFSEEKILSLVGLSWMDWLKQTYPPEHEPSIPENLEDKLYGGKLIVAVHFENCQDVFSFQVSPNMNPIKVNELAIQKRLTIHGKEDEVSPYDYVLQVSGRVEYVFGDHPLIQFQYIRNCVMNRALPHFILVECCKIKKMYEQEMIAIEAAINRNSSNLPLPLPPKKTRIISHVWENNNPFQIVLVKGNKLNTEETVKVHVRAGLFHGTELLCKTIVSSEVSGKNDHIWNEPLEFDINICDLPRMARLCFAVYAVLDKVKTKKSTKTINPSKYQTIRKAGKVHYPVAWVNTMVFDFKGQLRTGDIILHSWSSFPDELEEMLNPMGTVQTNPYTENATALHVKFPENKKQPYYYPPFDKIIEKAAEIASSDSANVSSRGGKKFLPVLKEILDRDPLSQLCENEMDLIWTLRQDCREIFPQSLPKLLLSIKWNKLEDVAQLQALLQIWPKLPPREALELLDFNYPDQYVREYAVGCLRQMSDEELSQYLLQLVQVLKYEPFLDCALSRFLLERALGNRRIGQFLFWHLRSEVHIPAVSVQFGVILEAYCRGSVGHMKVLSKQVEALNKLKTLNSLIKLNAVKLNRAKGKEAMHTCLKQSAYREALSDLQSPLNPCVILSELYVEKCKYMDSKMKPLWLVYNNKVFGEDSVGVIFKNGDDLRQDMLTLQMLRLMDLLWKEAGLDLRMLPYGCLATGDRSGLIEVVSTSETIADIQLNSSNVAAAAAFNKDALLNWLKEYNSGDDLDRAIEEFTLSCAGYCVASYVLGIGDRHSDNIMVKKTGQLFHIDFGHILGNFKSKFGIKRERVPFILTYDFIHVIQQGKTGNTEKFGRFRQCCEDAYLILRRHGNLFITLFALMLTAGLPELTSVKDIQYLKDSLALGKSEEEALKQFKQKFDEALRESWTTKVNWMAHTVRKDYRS
PI3Kβ, sequence (P27986 whole entry partner, canonical isoform): as the sequence (P27986 whole entry partner, canonical isoform) above
PI3Kγ, sequence (P48736 whole entry, canonical isoform): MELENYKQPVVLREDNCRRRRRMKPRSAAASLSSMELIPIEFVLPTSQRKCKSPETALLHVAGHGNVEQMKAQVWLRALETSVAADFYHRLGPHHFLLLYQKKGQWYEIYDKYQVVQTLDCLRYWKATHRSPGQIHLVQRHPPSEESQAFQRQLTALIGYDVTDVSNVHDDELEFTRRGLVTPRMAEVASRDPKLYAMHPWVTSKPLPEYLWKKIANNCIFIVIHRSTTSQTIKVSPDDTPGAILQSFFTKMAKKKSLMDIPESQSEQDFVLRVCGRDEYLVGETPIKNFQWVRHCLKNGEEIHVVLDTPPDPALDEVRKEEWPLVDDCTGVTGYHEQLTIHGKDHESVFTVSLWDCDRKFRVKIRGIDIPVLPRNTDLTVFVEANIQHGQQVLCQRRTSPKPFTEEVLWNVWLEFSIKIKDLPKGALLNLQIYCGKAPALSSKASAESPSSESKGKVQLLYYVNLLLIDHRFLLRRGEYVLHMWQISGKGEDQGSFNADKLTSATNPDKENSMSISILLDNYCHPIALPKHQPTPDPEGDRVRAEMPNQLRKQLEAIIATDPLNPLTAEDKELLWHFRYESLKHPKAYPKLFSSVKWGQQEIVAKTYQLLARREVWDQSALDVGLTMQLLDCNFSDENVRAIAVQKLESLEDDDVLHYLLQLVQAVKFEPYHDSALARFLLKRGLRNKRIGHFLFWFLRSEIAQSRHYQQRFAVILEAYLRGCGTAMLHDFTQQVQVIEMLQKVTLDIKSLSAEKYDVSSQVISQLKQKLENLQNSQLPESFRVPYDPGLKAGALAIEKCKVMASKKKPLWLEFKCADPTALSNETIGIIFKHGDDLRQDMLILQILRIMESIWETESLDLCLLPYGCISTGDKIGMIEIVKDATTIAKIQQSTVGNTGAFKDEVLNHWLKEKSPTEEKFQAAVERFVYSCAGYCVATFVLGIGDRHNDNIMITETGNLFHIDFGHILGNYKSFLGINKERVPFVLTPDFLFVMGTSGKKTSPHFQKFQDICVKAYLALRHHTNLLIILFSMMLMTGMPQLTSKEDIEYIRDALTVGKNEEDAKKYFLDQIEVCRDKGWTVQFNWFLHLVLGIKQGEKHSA
PI3Kγ, sequence (Q8WYR1 whole entry partner, canonical isoform): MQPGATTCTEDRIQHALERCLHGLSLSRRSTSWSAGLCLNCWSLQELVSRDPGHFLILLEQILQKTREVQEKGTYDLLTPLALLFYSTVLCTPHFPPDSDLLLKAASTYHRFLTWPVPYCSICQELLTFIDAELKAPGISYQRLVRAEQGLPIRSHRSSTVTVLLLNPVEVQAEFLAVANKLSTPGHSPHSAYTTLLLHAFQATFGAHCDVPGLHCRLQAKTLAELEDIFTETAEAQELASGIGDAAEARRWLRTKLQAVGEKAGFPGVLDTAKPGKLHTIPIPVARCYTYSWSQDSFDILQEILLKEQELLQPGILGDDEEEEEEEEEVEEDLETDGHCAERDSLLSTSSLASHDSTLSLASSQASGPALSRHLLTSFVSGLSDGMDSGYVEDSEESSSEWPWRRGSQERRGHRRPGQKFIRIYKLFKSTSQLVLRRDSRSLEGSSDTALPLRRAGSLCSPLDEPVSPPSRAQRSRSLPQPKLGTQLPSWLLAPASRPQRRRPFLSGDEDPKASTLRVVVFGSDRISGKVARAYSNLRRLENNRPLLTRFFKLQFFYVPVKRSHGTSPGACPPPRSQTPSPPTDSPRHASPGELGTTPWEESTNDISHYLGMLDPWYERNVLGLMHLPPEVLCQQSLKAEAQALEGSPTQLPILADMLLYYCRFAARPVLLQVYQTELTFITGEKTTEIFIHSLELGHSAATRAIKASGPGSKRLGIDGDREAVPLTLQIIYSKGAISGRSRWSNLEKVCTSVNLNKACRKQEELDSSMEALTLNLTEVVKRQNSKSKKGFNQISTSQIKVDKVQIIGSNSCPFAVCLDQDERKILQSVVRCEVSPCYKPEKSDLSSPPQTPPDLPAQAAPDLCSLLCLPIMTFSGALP

With `C[C@H](Nc1ncnc2[nH]cnc12)c1nc2cccc(Cl)c2c(=O)n1-c1cccc(NC(=O)Nc2ccncc2Cl)c1` [Compound 112, (S)-1-(3-(2-(1-((9H-purin-6-yl)amino)ethyl)-5-chloro-4-oxoquinazolin-3(4H)-yl)phenyl)-3-(3-chloropyridin-4-yl)urea], the IC50 at PI3Kβ is 0.006 µM; on PI3Kδ it was 0.026 µM; at PI3Kγ (setting [1]), 1.6 µM.
Regarding `C[C@H](Nc1ncnc(N)c1C#N)c1nc2cccc(Cl)c2c(=O)n1-c1cccc(NC(=O)Nc2nnn[nH]2)c1` [Compound 114, (S)-1-(3-(2-(1-((6-amino-5-cyanopyrimidin-4-yl)amino)ethyl)-5-chloro-4-oxoquinazolin-3(4H)-yl)phenyl)-3-(1H-tetrazol-5-yl)urea], the IC50 was 0.037 µM at PI3Kβ, 0.01 µM on PI3Kδ and 3.8 µM at PI3Kγ (setting [1]).
For `CONC(=O)Nc1cccc(-n2c([C@H](C)Nc3ncnc(N)c3C#N)nc3cccc(Cl)c3c2=O)c1` [Compound 115, (S)-1-(3-(2-(1-((6-amino-5-cyanopyrimidin-4-yl)amino)ethyl)-5-chloro-4-oxoquinazolin-3(4H)-yl)phenyl)-3-methoxyurea] the same measures were 0.014 µM, 0.005 µM and 3.7 µM.
For `C[C@H](Nc1ncnc(N)c1C#N)c1nc2cccc(Cl)c2c(=O)n1-c1cccc(NC(=O)NCCN(C)C)c1` [Compound 116, (S)-1-(3-(2-(1-((6-amino-5-cyanopyrimidin-4-yl)amino)ethyl)-5-chloro-4-oxoquinazolin-3(4H)-yl)phenyl)-3-(2-(dimethylamino)ethyl)urea, trifluoroacetic acid salt] the same measures were 0.002 µM, 0.004 µM and greater than 10 µM.
For `C[C@H](Nc1ncnc(N)c1C#N)c1nc2cccc(Cl)c2c(=O)n1-c1cccc(NC(=O)NCCO)c1` [Compound 117, (S)-1-(3-(2-(1-((6-amino-5-cyanopyrimidin-4-yl)amino)ethyl)-5-chloro-4-oxoquinazolin-3(4H)-yl)phenyl)-3-(2-hydroxyethyl)urea] the same measures were 0.004 µM, 0.006 µM and 8.3 µM.
Turning to `C[C@H](Nc1ncnc(N)c1C#N)c1nc2cccc(Cl)c2c(=O)n1-c1cccc(NC(=O)Nc2ccccc2)c1` [Compound 118, (S)-1-(3-(2-(1-((6-amino-5-cyanopyrimidin-4-yl)amino)ethyl)-5-chloro-4-oxoquinazolin-3(4H)-yl)phenyl)-3-phenylurea], the IC50 at PI3Kβ is 0.003 µM; on PI3Kδ, 0.008 µM; on PI3Kγ (setting [1]), 1 µM.
In the same order, the values of `C[C@H](Nc1ncnc(N)c1C#N)c1nc2cccc(Cl)c2c(=O)n1-c1cccc(NC(=O)Nc2cccnc2)c1` [Compound 119, (S)-1-(3-(2-(1-((6-amino-5-cyanopyrimidin-4-yl)amino)ethyl)-5-chloro-4-oxoquinazolin-3(4H)-yl)phenyl)-3-(pyridin-3-yl)urea, trifluoroacetic acid salt] are 0.003 µM, 0.005 µM and 1.4 µM.
As for `CC(C)NC(=O)Nc1cccc(-n2c([C@H](C)Nc3ncnc(N)c3C#N)nc3cccc(Cl)c3c2=O)c1` [Compound 120, (S)-1-(3-(2-(1-((6-amino-5-cyanopyrimidin-4-yl)amino)ethyl)-5-chloro-4-oxoquinazolin-3(4H)-yl)phenyl)-3-isopropylurea], the figures for the IC50 on PI3Kβ, at PI3Kδ and on PI3Kγ (setting [1]) were 0.009 µM, 0.007 µM and 4.8 µM, respectively.
As for `C[C@H](Nc1ncnc(N)c1C#N)c1nc2cccc(Cl)c2c(=O)n1-c1cccc(NC(=O)NC2CCCC2)c1` [Compound 121, (S)-1-(3-(2-(1-((6-amino-5-cyanopyrimidin-4-yl)amino)ethyl)-5-chloro-4-oxoquinazolin-3(4H)-yl)phenyl)-3-cyclopentylurea], the IC50 came out at 0.003 µM on PI3Kβ, 0.003 µM at PI3Kδ and 1.6 µM at PI3Kγ (setting [1]).
Take `C[C@H](Nc1ncnc(N)c1C#N)c1nc2cccc(Cl)c2c(=O)n1-c1cccc(NC(=O)NC2CCCCC2)c1` [Compound 122, (S)-1-(3-(2-(1-((6-amino-5-cyanopyrimidin-4-yl)amino)ethyl)-5-chloro-4-oxoquinazolin-3(4H)-yl)phenyl)-3-cyclohexylurea]: the IC50 was 0.003 µM on PI3Kβ, 0.004 µM at PI3Kδ and 2 µM on PI3Kγ (setting [1]).
Regarding `C[C@H](Nc1ncnc(N)c1C#N)c1nc2cccc(Cl)c2c(=O)n1-c1cccc(NC(=O)NC2CCC2)c1` [Compound 123, (S)-1-(3-(2-(1-((6-amino-5-cyanopyrimidin-4-yl)amino)ethyl)-5-chloro-4-oxoquinazolin-3(4H)-yl)phenyl)-3-cyclobutylurea], the IC50 on PI3Kβ turned out to be 0.007 µM; on PI3Kδ, 0.003 µM; at PI3Kγ (setting [1]), 2.2 µM.
For `C[C@H](Nc1ncnc(N)c1C#N)c1nc2cccc(Cl)c2c(=O)n1-c1cccc(NC(=O)NC(C)(C)C)c1` [Compound 124, (S)-1-(3-(2-(1-((6-amino-5-cyanopyrimidin-4-yl)amino)ethyl)-5-chloro-4-oxoquinazolin-3(4H)-yl)phenyl)-3-(tert-butyl)urea], the IC50 at PI3Kβ came out at 0.014 µM; at PI3Kδ, 0.009 µM; at PI3Kγ (setting [1]) it was 3.3 µM.
In the case of `C[C@H](Nc1ncnc(N)c1C#N)c1nc2cccc(Cl)c2c(=O)n1-c1cccc(NC(=O)NC2CC2)c1` [Compound 125, (S)-1-(3-(2-(1-((6-amino-5-cyanopyrimidin-4-yl)amino)ethyl)-5-chloro-4-oxoquinazolin-3(4H)-yl)phenyl)-3-cyclopropylurea], the IC50 at PI3Kβ was 0.007 µM; on PI3Kδ, 0.007 µM; at PI3Kγ (setting [1]), 3.4 µM.
Take `CCCNC(=O)Nc1cccc(-n2c([C@H](C)Nc3ncnc(N)c3C#N)nc3cccc(Cl)c3c2=O)c1` [Compound 126, (S)-1-(3-(2-(1-((6-amino-5-cyanopyrimidin-4-yl)amino)ethyl)-5-chloro-4-oxoquinazolin-3(4H)-yl)phenyl)-3-propylurea]: the results for the IC50 at PI3Kβ, on PI3Kδ and on PI3Kγ (setting [1]) were 0.008 µM, 0.004 µM and 2.9 µM, respectively.
`C[C@H](Nc1ncnc(N)c1C#N)c1nc2cccc(Cl)c2c(=O)n1-c1cccc(NC(=O)NCCF)c1` [Compound 127, (S)-1-(3-(2-(1-((6-amino-5-cyanopyrimidin-4-yl)amino)ethyl)-5-chloro-4-oxoquinazolin-3(4H)-yl)phenyl)-3-(2-fluoroethyl)urea]: the IC50 on PI3Kβ is 0.008 µM; on PI3Kδ, 0.005 µM; at PI3Kγ (setting [1]) it was 5.8 µM.
For the molecule `C[C@H](Nc1ncnc(N)c1C#N)c1nc2cccc(Cl)c2c(=O)n1-c1cccc(NC(=O)NCCCO)c1` [Compound 128, (S)-1-(3-(2-(1-((6-amino-5-cyanopyrimidin-4-yl)amino)ethyl)-5-chloro-4-oxoquinazolin-3(4H)-yl)phenyl)-3-(3-hydroxypropyl)urea], the IC50 stood at 0.009 µM on PI3Kβ, 0.004 µM on PI3Kδ and 5.6 µM on PI3Kγ (setting [1]).
Turning to `CC(O)CNC(=O)Nc1cccc(-n2c([C@H](C)Nc3ncnc(N)c3C#N)nc3cccc(Cl)c3c2=O)c1` (stereo partly drawn) [Compound 129, 1-(3-(2-((S)-1-((6-amino-5-cyanopyrimidin-4-yl)amino)ethyl)-5-chloro-4-oxoquinazolin-3(4H)-yl)phenyl)-3-(2-hydroxypropyl)urea], the IC50 on PI3Kβ was 0.009 µM; at PI3Kδ it was 0.004 µM; on PI3Kγ (setting [1]), 5.6 µM.
As for `O=C(NCCCO)Nc1cccc(-n2c([C@H](COCc3ccccc3)Nc3ncnc4[nH]cnc34)nc3cccc(Cl)c3c2=O)c1` [Compound 131, (R)-1-(3-(2-(1-((9H-purin-6-yl)amino)-2-(benzyloxy)ethyl)-5-chloro-4-oxoquinazolin-3(4H)-yl)phenyl)-3-(3-hydroxypropyl)urea], the figures for the IC50 at PI3Kβ, at PI3Kδ and on PI3Kγ were 0.043 µM, 0.041 µM and greater than 10 µM, respectively.
As to `CCNC(=O)Nc1cccc(-n2c([C@H](COCc3ccccc3)Nc3ncnc(N)c3C#N)nc3cccc(Cl)c3c2=O)c1` [Compound 132, (R)-1-(3-(2-(1-((6-amino-5-cyanopyrimidin-4-yl)amino)-2-(benzyloxy)ethyl)-5-chloro-4-oxoquinazolin-3(4H)-yl)phenyl)-3-ethylurea], the figures for the IC50 on PI3Kβ, at PI3Kδ and at PI3Kγ (setting [1]) were 0.021 µM, 0.01 µM and 8.7 µM, respectively.
In the case of `COCCCNC(=O)Nc1cccc(-n2c([C@H](C)Nc3ncnc(N)c3C#N)nc3cccc(Cl)c3c2=O)c1` [Compound 134, (S)-1-(3-(2-(1-((6-amino-5-cyanopyrimidin-4-yl)amino)ethyl)-5-chloro-4-oxoquinazolin-3(4H)-yl)phenyl)-3-(3-methoxypropyl)urea], the IC50 at PI3Kβ was determined as 0.005 µM; at PI3Kδ, 0.01 µM; on PI3Kγ (setting [1]) it was 6 µM.
In the same order, the values of `COCCCNC(=O)Nc1cccc(-n2c([C@H](C)Nc3ncnc4[nH]cnc34)nc3cccc(Cl)c3c2=O)c1` [Compound 135, (S)-1-(3-(2-(1-((9H-purin-6-yl)amino)ethyl)-5-chloro-4-oxoquinazolin-3(4H)-yl)phenyl)-3-(3-methoxypropyl)urea] are 0.016 µM, 0.035 µM and 3.5 µM.
For `CCNC(=O)Nc1cccc(-n2c([C@H](C)Nc3ncnc(N)c3C(=O)O)nc3cccc(Cl)c3c2=O)c1` [Compound 136, (S)-4-amino-6-((1-(5-chloro-3-(3-(3-ethylureido)phenyl)-4-oxo-3,4-dihydroquinazolin-2-yl)ethyl)amino)pyrimidine-5-carboxylic acid] the same measures were 1.8 µM, 0.61 µM and greater than 10 µM.

Source of the values: patent publication US10221197B2, “Phosphatidylinositol 3-kinase inhibitors” (Gilead Sciences, Inc., priority 2014, dated 2019).
